Assay results reported in publication PMC4138103 (PLoS ONE, 2014).

Tested on: Sprague-Dawley rats
Experiment: Clinical chemistry
Type: in vivo, Rattus norvegicus
Set-up: key to Cholesterol, Dose response / Triglyserides, Dose response / Glucose, Dose response / Albumin, Dose response / K, Dose response / Total bilirubin, Dose response: D: significant dose response (for results, see Table 2); T: significant trend
Conditions: for Alkaline phosphatase, CED / Alkaline phosphatase, CED-L / Chlolesterol, CED / Chlolesterol, CED-L / Glucose, CED / Glucose, CED-L / Potassium, CED / Potassium, CED-L / Total Bilirubin, CED / Total Bilirubin, CED-L / Albumin, CED / Albumin, CED-L / Total protein, CED / Total protein, CED-L / Triglycerides, CED / Triglycerides, CED-L: total dose based
Method: Spectrophotometric methods were used for the determination of serum total calcium, cholesterol, creatinine, glucose, triglycerides and urea. Serum sodium, potassium and chloride concentrations were measured directly by ion selective electrodes. The analyses were performed by a clinical chemistry analyzer (Konelab 30i, ThermoFisher Scientific, Vantaa, Finland). Plasma lactate dehydrogenase (LD) activity was measured according to the recommendations of the International Federation of Clinical Chemistry (IFCC 1994/I) using Konelab 60i clinical chemistry analyzer. Methods and results for liver related parameters (serum alanine aminotransferase [ALT] activity, alkaline phosphatase [ALP] activity, albumin, total protein and total bilirubin are reported separately.
Data were also analyzed using the BMD method, which is based on dose-response modeling of the full data set using a nested family of exponential and Hill models. The analyses were done on data of males and females combined, using sex as a covariate. […] In that case, different Critical Effect Doses (CEDs) and CEDs at the lowest bound of the confidence interval (CED-L) were generated for each sex. If no difference between sexes is detected, a CED and CED-Ls for the combined data is generated. However, this was also done if the curve fits are close, and separate analyses for males and females were then performed manually. CEDs and CED-Ls were calculated at the predefined Critical Effect Size (CES) of 5% (EFSA standard) or 10%.

[1] = females, total dose 1700 mg/kg bw
[2] = females, adipose tissue concentration based
[3] = males, total dose 0-1700 mg/kg bw
[4] = males, total dose 1000 mg/kg bw
[5] = males, total dose 1700 mg/kg bw
[6] = males, adipose tissue concentration based

## Clc1cc(Cl)c(-c2cc(Cl)c(Cl)c(Cl)c2Cl)cc1Cl [PCB 180, 2,2′,3′,4,4′,5,5′-heptachlorobiphenyl]
[1]
  Creatinine: 52.5 µmol/L
  Glucose: 12.4 mmol/L
  K: 5.30 mmol/L
  Na: 143.2 mmol/L
  Total Ca: 3.49 mmol/L
  Total bilirubin: 1.37 µmol/L
  Triglyserides: 0.88 mmol/L
  Urea: 10.0 mmol/L
females, CES 5%
  Alkaline phosphatase, CED: 67.6 mg/kg bw
  Alkaline phosphatase, CED-L: 30.1 mg/kg bw
  Chlolesterol, CED: 192 mg/kg bw
  Chlolesterol, CED-L: 167 mg/kg bw
  Glucose, CED: 677 mg/kg bw
  Glucose, CED-L: 408 mg/kg bw
  Potassium, CED: 1210 mg/kg bw
  Potassium, CED-L: 786 mg/kg bw
  Total Bilirubin, CED: 4.12 mg/kg bw
  Total Bilirubin, CED-L: 0.67 mg/kg bw
females, CES 10%
  Alkaline phosphatase, CED: 154 mg/kg bw
  Alkaline phosphatase, CED-L: 68.5 mg/kg bw
  Chlolesterol, CED: 375 mg/kg bw
  Chlolesterol, CED-L: 326 mg/kg bw
  Glucose, CED: 1390 mg/kg bw
  Glucose, CED-L: 839 mg/kg bw
  Potassium, CED: 2490 mg/kg bw
  Potassium, CED-L: 1614 mg/kg bw
  Total Bilirubin, CED: 10.3 mg/kg bw
  Total Bilirubin, CED-L: 1.63 mg/kg bw
[2]
  Serum ALP activity, CED: 308 µg/g lipid
  Serum cholesterol, CED: 640 µg/g lipid
[3]
  Albumin, Dose response: T
  Cholesterol, Dose response: T
  Glucose, Dose response: T
  Triglyserides, Dose response: T
males, total dose 3 mg/kg bw
  Albumin: 32.6 g/L
  Cholesterol: 2.72 mmol/L
  Cl: 96.9 mmol/L
  Creatinine: 54.2 µmol/L
  Glucose: 18.9 mmol/L
  K: 5.76 mmol/L
  Na: 143.1 mmol/L
  Total Ca: 3.43 mmol/L
  Total bilirubin: 2.02 µmol/L
  Triglyserides: 0.84 mmol/L
  Urea: 9.0 mmol/L
males, total dose 10 mg/kg bw
  Albumin: 32.9 g/L
  Cholesterol: 2.84 mmol/L
  Cl: 96.8 mmol/L
  Creatinine: 51.5 µmol/L
  Glucose: 14.9 mmol/L
  K: 6.12 mmol/L
  Na: 143.0 mmol/L
  Total Ca: 3.41 mmol/L
  Total bilirubin: 1.58 µmol/L
  Triglyserides: 0.88 mmol/L
  Urea: 8.2 mmol/L
males, total dose 30 mg/kg bw
  Albumin: 32.8 g/L
  Cholesterol: 2.74 mmol/L
  Cl: 96.0 mmol/L
  Creatinine: 53.8 µmol/L
  Glucose: 18.6 mmol/L
  K: 5.93 mmol/L
  Na: 142.9 mmol/L
  Total Ca: 3.44 mmol/L
  Total bilirubin: 1.46 µmol/L
  Triglyserides: 0.65 mmol/L
  Urea: 9.3 mmol/L
males, total dose 100 mg/kg bw
  Albumin: 33.1 g/L
  Cholesterol: 3.56 mmol/L
  Cl: 96.3 mmol/L
  Creatinine: 53.4 µmol/L
  Glucose: 17.8 mmol/L
  K: 5.74 mmol/L
  Na: 143.0 mmol/L
  Total Ca: 3.58 mmol/L
  Total bilirubin: 1.54 µmol/L
  Triglyserides: 0.34 mmol/L
  Urea: 9.2 mmol/L
males, total dose 300 mg/kg bw
  Albumin: 32.5 g/L
  Cholesterol: 3.44 mmol/L
  Cl: 96.3 mmol/L
  Creatinine: 52.6 µmol/L
  Glucose: 17.7 mmol/L
  K: 5.73 mmol/L
  Na: 142.7 mmol/L
  Total Ca: 3.46 mmol/L
  Total bilirubin: 1.73 µmol/L
  Triglyserides: 0.36 mmol/L
  Urea: 9.0 mmol/L
[4]
  Albumin: 34.2 g/L
  Cholesterol: 4.35 mmol/L
  Cl: 95.7 mmol/L
  Creatinine: 53.8 µmol/L
  Glucose: 11.8 mmol/L
  K: 6.12 mmol/L
  Na: 142.6 mmol/L
  Total Ca: 3.45 mmol/L
  Total bilirubin: 1.84 µmol/L
  Triglyserides: 0.32 mmol/L
  Urea: 9.9 mmol/L
[5]
  Albumin: 34.4 g/L
  Cholesterol: 5.15 mmol/L
  Cl: 97.7 mmol/L
  Creatinine: 55.4 µmol/L
  Glucose: 12.7 mmol/L
  K: 5.89 mmol/L
  Na: 143.4 mmol/L
  Total Ca: 3.53 mmol/L
  Total bilirubin: 1.87 µmol/L
  Triglyserides: 0.44 mmol/L
  Urea: 9.1 mmol/L
males, CES 5%
  Albumin, CED: 1550 mg/kg bw
  Albumin, CED-L: 1090 mg/kg bw
  Alkaline phosphatase, CED: 542 mg/kg bw
  Alkaline phosphatase, CED-L: 327 mg/kg bw
  Chlolesterol, CED: 38.3 mg/kg bw
  Chlolesterol, CED-L: 19.5 mg/kg bw
  Glucose, CED: 198 mg/kg bw
  Glucose, CED-L: 146 mg/kg bw
  Total protein, CED: 255 mg/kg bw
  Total protein, CED-L: 134 mg/kg bw
  Triglycerides, CED: 3.31 mg/kg bw
  Triglycerides, CED-L: 1.90 mg/kg bw
males, CES 10%
  Albumin, CED: 3040 mg/kg bw
  Albumin, CED-L: 2130 mg/kg bw
  Alkaline phosphatase, CED: 1110 mg/kg bw
  Alkaline phosphatase, CED-L: 672 mg/kg bw
  Chlolesterol, CED: 79.0 mg/kg bw
  Chlolesterol, CED-L: 40.4 mg/kg bw
  Glucose, CED: 408 mg/kg bw
  Glucose, CED-L: 300 mg/kg bw
  Total protein, CED: 702 mg/kg bw
  Total protein, CED-L: 379 mg/kg bw
  Triglycerides, CED: 6.92 mg/kg bw
  Triglycerides, CED-L: 3.97 mg/kg bw
[6]
  Serum chlolesterol, CED-L: 91400 ng/g lipid
  Serum cholesterol, CED: 177 µg/g lipid
  Serum total protein, CED: 1080 µg/g lipid
  Serum triglyceride, CED: 12.5 µg/g lipid
  Serum triglycerids, CED-L: 7260 ng/g lipid
